Reference: patent publication US9540351B2, “Pharmaceutically acceptable salts of 3,5-diaminopyrazole kinase inhibitors” (AXIKIN PHARMACEUTICALS, INC., priority 2013, dated 2017)
Like-named read-outs stand apart in the source and are kept apart here.

What was measured:
[1] = Solubility assessment of salts in water; assay type: physicochemical; conditions: thermodynamic from solid, read-out: Aqueous Solubility
Method: Solubility assessment: A preweighed amount of powder of a salt was treated with water to target a nominal concentration of 10 mg/mL. If a clear solution was obtained, then the solubility was noted as ≧10 mg/mL. If a suspension was obtained, additional water was added to target a nominal concentration of 5 mg/mL. If still a suspension after the addition of water, additional water was added to target a lower nominal concentration. If a suspension was still observed at a nominal concentration of 0.1 mg/mL, the suspension was filtered through a 0.4 micron filter, and the filtrate was analyzed by RP-HPLC to ascertain the solubility range of the salt.

[2] = molecular target: T1, kinase domain protein of RC kinase (Homo sapiens, UniProt Q56UN5); assay: Enzymatic assay for kinase inhibitory activity (Crebtide substrate, Lance readout); assay type: biochemical; conditions: free base compounds, inhibition of RC kinase activity at 1 μM
T1 sequence (Q56UN5 1061-1324 limits assumed): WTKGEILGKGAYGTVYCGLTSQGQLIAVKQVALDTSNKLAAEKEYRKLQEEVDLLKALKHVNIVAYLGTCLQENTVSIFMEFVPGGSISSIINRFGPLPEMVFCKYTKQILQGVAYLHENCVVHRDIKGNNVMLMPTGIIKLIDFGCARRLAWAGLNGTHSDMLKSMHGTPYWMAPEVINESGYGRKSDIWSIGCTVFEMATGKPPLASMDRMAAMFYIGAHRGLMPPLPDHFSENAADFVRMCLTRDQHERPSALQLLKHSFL
Method: Solutions of a test compound, Crebtide (a substrate), a kinase, and ATP were prepared using 1×MAPK Buffer (50 mM HEPES, 1 mM EGTA, […], 10 mM MgCl2, 2 mM DTT, and 0.01% Tween 20).
To each well, the test compound (1 μL) was first added (in duplicate) to reach a final concentration of 1 μM or 1×IC50 of the compound. The kinase (5 μL) was then added to each well to reach a final concentration of […] for the kinase domain or […] for the full-length domain. Each plate included a positive and negative controls in duplicate wells. Crebtide (2.5 μL) was then added to each well in duplicate to reach a final concentration of 50 nM. If the full-length kinase was used, the plates were incubated for 45 min at room temperature before proceeding further. ATP (2.5 μL) was added to each well to reach a final concentration of 1 μM for the kinase domain and 3 μM for the full-length.
After the addition of ATP, the plates were incubated for 45 min at room temperature. During the incubation, an EDTA solution (40 mM) and anti-Crebtide ([…]) were prepared. Additionally, a detection buffer stock solution was diluted ten fold before use.
After the incubation, the anti-Crebtide (5 μL) and EDTA (5 μL) were added to each well to reach their final concentrations of […] and 10 mM, respectively. The plates were allowed to develop at room temperature for 45 min. The plates were then read at 665 nm and 615 nm using Perkin Elmer Lance machine.
As will be appreciated by those skilled in the are, the activity of a particular salt provided herein will be the same as the activity for the parent free-base compound.

| Compound | solubility ([1]; Free base) [µg/mL] | solubility ([1]; HCl salt) [µg/mL] | inhibition at 1 µM [2] [%] | solubility ([1]; HBr salt) [µg/mL] | solubility ([1]; Phosphoric acid salt) [µg/mL] | solubility ([1]; Sulfuric acid salt) [µg/mL] | solubility ([1]; Trifluoroacetic acid salt) [µg/mL] | solubility ([1]; acetic acid salt) [µg/mL] | solubility ([1]; camphorsulfonic acid salt) [µg/mL] | solubility ([1]; formic acid salt) [µg/mL] | solubility ([1]; Methane sulfonic acid salt) [µg/mL] | solubility ([1]; p-toluenesulfonic acid salt) [µg/mL] | solubility ([1]; tartaric acid salt) [µg/mL] |
| --- | --- | --- | --- | --- | --- | --- | --- | --- | --- | --- | --- | --- | --- |
| NC(=O)C1=C(NCc2ccc(O)cc2)N=NC1Nc1cccc(Cl)c1 (stereo not drawn) [Compound 1, 3-((3-chlorophenyl)amino)-5-((4-hydroxybenzyl)amino)-3H-pyrazole-4-carboxamide] | < 40 | > 63 | ≥ 50 |  |  |  |  |  |  |  |  |  |  |
| NC(=O)c1c(Nc2ccc(N3CCOCC3)cc2)n[nH]c1NCc1ccc(O)cc1 [Compound 4, 5-((4-hydroxybenzyl)amino)-3-((4-morpholinophenyl)amino)-3H-pyrazole-4-carboxamide] | < 100 | > 10000 | ≥ 50 | > 10000 | < 200 | > 2000 | < 200 | < 500 | < 200 | < 500 |  |  |  |
| NC(=O)C1=C(NCc2ccc(O)cc2)N=NC1Nc1ccc(-c2ccccn2)cc1 (stereo not drawn) [Compound 6, 5-((4-hydroxybenzyl)amino)-3-((4-(pyridin-2-yl)phenyl)amino)-3H-pyrazole-4-carboxamide] | < 100 |  | ≥ 50 |  | > 20000 | < 500 | < 500 |  | < 500 |  |  | < 200 | < 200 |
| CC(C)N1CCN(c2ccc(Nc3n[nH]c(NCc4ccc(O)cc4)c3C(N)=O)cc2)CC1 [Compound 7, 5-((4-hydroxybenzyl)amino)-3-((4-(4-isopropylpiperazin-1-yl)phenyl)amino)-3H-pyrazole-4-carboxamide] | < 40 | > 500 | ≥ 50 |  | > 1000 |  |  |  |  |  |  |  |  |
| NC(=O)C1=C(NCc2ccc(O)cc2)N=NC1Nc1ccc(-n2ccnc2)cc1 (stereo not drawn) [Compound 8, 3-((4-(1H-imidazol-1-yl)phenyl)amino)-5-((4-hydroxybenzyl)amino)-3H-pyrazole-4-carboxamide] | < 40 | > 500 | ≥ 50 |  | > 1000 |  |  |  |  |  |  |  |  |
| NC(=O)c1c(Nc2ccc3[nH]ncc3c2)n[nH]c1NCc1ccc(O)cc1 [Compound 9, 3-((1H-indazol-5-yl)amino)-5-((4-hydroxybenzyl)amino)-3H-pyrazole-4-carboxamide] | < 40 | < 100 | ≥ 50 |  |  |  |  |  |  |  |  |  |  |

Other lines, results leading:

| solubility ([1]; Free base) [µg/mL] | solubility ([1]; HCl salt) [µg/mL] | inhibition at 1 µM [2] [%] | solubility ([1]; HBr salt) [µg/mL] | solubility ([1]; Phosphoric acid salt) [µg/mL] | solubility ([1]; Sulfuric acid salt) [µg/mL] | solubility ([1]; Trifluoroacetic acid salt) [µg/mL] | solubility ([1]; acetic acid salt) [µg/mL] | solubility ([1]; camphorsulfonic acid salt) [µg/mL] | solubility ([1]; formic acid salt) [µg/mL] | solubility ([1]; Methane sulfonic acid salt) [µg/mL] | solubility ([1]; p-toluenesulfonic acid salt) [µg/mL] | solubility ([1]; tartaric acid salt) [µg/mL] | Compound |
| --- | --- | --- | --- | --- | --- | --- | --- | --- | --- | --- | --- | --- | --- |
| < 40 | > 1000 | ≥ 50 |  |  |  |  |  |  |  |  |  |  | CN1CCN(c2ccc(NC3N=NC(NCc4ccc(O)cc4)=C3C(N)=O)cc2)CC1 (stereo not drawn) [Compound 2, 5-((4-hydroxybenzyl)amino)-3-((4-(4-methylpiperazin-1-yl)phenyl)amino)-3H-pyrazole-4-carboxamide] |
| < 40 | > 500 | ≥ 50 |  |  |  |  |  |  |  |  |  |  | NC(=O)C1=C(NCc2ccc(O)cc2)N=NC1Nc1ccc(CN2CCOCC2)cc1 (stereo not drawn) [Compound 3, 5-((4-hydroxybenzyl)amino)-3-((4-(morpholinomethyl)phenyl)amino)-3H-pyrazole-4-carboxamide] |
| < 100 | > 2000 | ≥ 50 |  | > 100 | > 10 | > 1000 |  |  |  | > 10000 |  |  | NC(=O)C1=C(NCc2ccc(O)cc2)N=NC1Nc1ccc(N2CCOCC2)nc1 (stereo not drawn) [Compound 5, 5-((4-hydroxybenzyl)amino)-3-((6-morpholinopyridin-3-yl)amino)-3H-pyrazole-4-carboxamide] |
